Measured values taken from article PMC7355663, “Microscale Thermophoresis as a Screening Tool to Predict Melanin Binding of Drugs” (Pharmaceutics, 2020).
Read-outs that look alike come from different tables or passages of the source.

What was measured:
melanin [1] = test: in vitro; settings: for fraction unbound at 20 h, 1 µM: pig, pH 7.4
Protocol: (§1) The traditional melanin binding assay was conducted with melanin from the porcine RPE-choroid. We used previously published methods for melanin isolation and drug binding. Fresh melanin suspension and test compound solutions were prepared before each experiment. The melanin suspension (in PBS, pH 7.4) was sonicated in a bath sonicator for 30 min (Elmasonic S 40 H, Elma Schmidbauer GmbH, Singen, Germany) before the experiment. The incubation with test compounds took place at 37 °C on a shaker (220 rpm), and the melanin concentration in the assay was 1 mg/mL (0.15 mg/well). In the control samples, PBS buffer (pH 7.4) was used instead of the melanin suspension. Three individual replicates were made for each experiment. After 20 h incubation, the samples were centrifuged at 20,000× g for 20 min, and supernatant containing the unbound ligand was collected for analysis.
(§2) Samples having an estimated concentration of 0.5 µM or higher were analyzed with ultra-high pressure liquid chromatography (UPLC) (Acquity UPLC, Waters, Milford, MA, USA) with UV detection (Photodiode Array Detector, Waters, MA, USA). The separation was carried out on a Luna Omega Polar C18 (1.6 μm, 2.1 × 50 mm^2) column (Phenomenex) at 30 °C. Injection volume was 4 µL. Gradient mode was used for all the compounds with an acetonitrile/15 mM phosphate buffer (pH 2) mobile phase. Gradient duration was 3−5 min depending on the sample (levofloxacin, terazosin, and papaverine).
(§3) All internal standards, namely levofloxacin D8, terazosin D8, and papaverine D3, were purchased from Toronto Research Chemicals (Toronto, ON, Canada). […] Injection volumes were 0.2 μL for terazosin, 0.3 µL for levofloxacin, and 0.15 µl for papaverine with a flow through needle injection system. The mobile phase consisted of 0.1% formic acid (Merck, Darmstadt, Germany) in ultrapure water (A) and 100% LC–MS grade acetonitrile (Honeywell, Seelze, Germany) (B). […] The gradient for levofloxacin was the same as for papaverine, but the total run time was 6 min. The flow rate was 0.3 mL/min for all the compounds.
(§4) Mass spectrometric measurements were carried out using a Waters Xevo TQ-S triple quadruple mass spectrometer coupled with an electrospray ionization (ESI) on a positive mode for all three compounds. Optimized MS-parameters were as follows: capillary 1.5 kV (terazosin and papaverine), 3.5 kV (levofloxacin), cone voltage 80 V (terazosin) and 8 V (terazosin D8), 22 V (papaverine and papaverine D3), 28 V (levofloxacin and levofloxacin D8), source temperature 150 °C, and desolvation temperature 500 °C (terazosin) or 450 °C (papaverine and levofloxacin). Nitrogen (AGA, Helsinki, Finland) was used as the desolvation gas (1000 L·h^−1 terazosin, 800 L·h^−1 papaverine and levofloxacin) and the cone gas (150 L·h^−1), argon (AGA, Helsinki, Finland) as the collision gas. Multiple reaction monitoring (MRM) mode was employed for quantification. […] The resulting data were analyzed with Waters MassLynx V4.1 software. To consider the effect of melanin on the analyses, separate samples containing only melanin in PBS (with no test compound) were also studied.
(§5) The binding parameters were determined with Sips isotherm (Equation (2)) as described by Manzanares et al.. B = (Bmax × [L]^n)/(Kd^n + [L]^n)(2) where B is the amount of bound drug (nmol·mg^−^1); Bmax is the maximum binding capacity (nmol·mg^−^1); [L] is the free drug concentration (µM); n is the heterogeneity index (assuming heterogeneity of the surface of the melanin particles); and Kd represents the dissociation constant (µM).

[2] = Label-free microscale thermophoresis (MST) melanin binding assay; settings: for melanin binder category in Figure 1a: comparison of MST with traditional assay
Protocol: Synthetic melanin was purchased from Sigma Aldrich (#M8631-100 mg). Melanin nanoparticles were prepared as described earlier by Fan et al., and low-binding pipette tips (Maxymum RecoveryTM pipet tips, Corning Incorporated, Salt Lake City, UT, USA) and tubes (No stick microtubes, Alpha Laboratories, Hampshire, UK) were used with both melanin and melanin nanoparticles. Briefly, melanin was dissolved into 1 N NaOH with a concentration of 2 mg/mL and stirred by vortexing. The solution was neutralized by adding an equal volume of 1 N HCl. […] After the final centrifugation, the resulting nanoparticles were suspended into a small volume of sterile water and freeze-dried for 48–72 h (ModulyoD-230, Thermo Savant, Holbrook, NY, USA), and stored at −20 °C until the binding assays.
Melanin binding of each of the 13 model compounds was determined (for the concentrations in the assay, see Table 1). The dilution series of drugs were prepared onto a PCR plate (4titude PCR Plate, Skirted, #4ti-0740, Brooks Life Sciences, Chelmsford, MA, USA) in phosphate buffered saline (PBS, pH 7.4). […] The compound dilutions (10 µL) were transferred into 0.2 mL PCR tube strips (#TBS0201, Bio-Rad Laboratories, Inc., Hercules, CA, USA), and an equal volume of 1 mg/mL melanin nanoparticle dilution was added, resulting in a final melanin concentration of 0.5 mg/mL. At least three biological replicates (individually incubated dilution series) were prepared for each compound (n = 3–5). A reference sample containing only melanin nanoparticles and PBS (pH 7.4) was included in each assay to determine the unbound state in the thermophoresis experiment. Melanin nanoparticles were incubated with the compounds at room temperature for at least 2 h.
After >2 h incubation, the melanin–ligand complexes were mixed gently with a pipette to ensure melanin solution homogeneity and then transferred into capillaries (Monolith NT.115 Premium capillaries, #MOK025, NanoTemper Technologies GmbH, München, Germany). The samples were analyzed with a Monolith NT.115 pico device using MO.Control Software (both from NanoTemper Technologies GmbH, München, Germany) using nano-blue excitation, LED light adjusted to 60% excitation power, and infrared laser (MST power) set to high. […] The equation is based on the Langmuir binding isotherm. […] Equation (1) is a follows:(1) f(c)=Unbound+(Bound−Unbound)×c+c(target)+Kd−(c+c(target)+Kd)^2−4c×c(target)/2c(target) where f(c) is the fraction bound at a given ligand concentration c. Unbound is either the normalized fluorescence signal (Fnorm; MST mode) or raw fluorescence counts (initial fluorescence mode) of the target alone. Bound is either the normalized fluorescence signal or raw fluorescence counts (initial fluorescence mode) of the melanin–ligand complex. Kd is the dissociation constant or binding affinity, and c (target) is the final concentration of the target in the assay.
The normalized fluorescence is the ratio of relative fluorescence of the selected region after heating (hot region) and relative initial fluorescence before the heating (cold region, i.e., relative fluorescence values before the infrared laser was switched on). The MST traces displaying the changes in the relative fluorescence over time (heating) with the selected hot and cold regions are presented in the Supplementary Materials. In the case of ligand-induced changes in the initial raw fluorescence counts, the raw fluorescence counts prior to the heating were used (initial fluorescence mode). If the ligand-induced fluorescence changes were not observed, the normalized fluorescence signals (MST mode) were used to determine the Kd (for additional information, see the Supplementary Materials). […] Affinity Analysis Software.
Kd determination strategies. The Kd values were tested in both initial fluorescence and the above
described MST modes within the MO Affinity Analysis Software (Fig. S1, Table S1) and the Kd values

[3] = set-up: method as in PMID 26741026, PMID 29859954; settings: from previous studies, ref [11],[16], cited from earlier work; for Kd: read-out: Kd ± SE, traditional method (Sips isotherm); for n ± SE, traditional method (Sips isotherm): heterogeneity index; for Bmax ± SE, traditional method (Sips isotherm): maximum binding capacity
[4] = Traditional melanin binding assay (equilibrium binding, Sips isotherm); settings: for Target Capacity ± SE, traditional method (Sips isotherm): Bmax multiplied with 0.5 mg/mL melanin concentration of the MST assay; for n ± SE, traditional method (Sips isotherm): heterogeneity index; for n ± SE, traditional method (Sips isotherm) / Bmax ± SE, traditional method (Sips isotherm) / Kd: 1 mg/mL melanin, PBS pH 7.4, 37 °C; for Bmax ± SE, traditional method (Sips isotherm): maximum binding capacity; for Kd: read-out: Kd ± SE, traditional method (Sips isotherm)
Protocol: as §1, §2, §3, §4, §5

[5] = Prediction of unbound ligand fraction in vivo (human RPE-choroid); settings: class by predicted fraction unbound in vivo, human RPE-choroid
Protocol: (§6) Unbound ligand fractions in vivo were calculated considering melanin binding as the only driver of nonspecific tissue binding.
(§7) Linear regression was used to describe the relationship between the Kd values obtained with the MST and the predicted unbound ligand fractions in human RPE-choroid obtained with calculations described above.
(§8) The Kd values obtained with MST consider only one class of binding site, whereas the Sips isotherm (the traditional binding assay) depicts different binding energies and binding sites. […] This approach is relevant to evaluate the melanin binding.

melanin [6] = test: as above; settings: human
Protocol: as §6, §7, §8

[7] = 0.5 mg/mL (12.5 µM) melanin nanoparticles, PBS pH 7.4, room temperature, 68% confidence, initial fluorescence mode for compounds marked *, otherwise MST mode, read-out: Kd ± Kd Confidence (MST)
[8] = Table S2, normalized fluorescence, 60% excitation power, read-out: Kd, MST mode (Fnorm)
[9] = Table S2, raw fluorescence counts before heating, 60% excitation power, read-out: Kd, initial fluorescence mode (converted)
[10] = human RPE-choroid (predicted), 34.8 mg/mL melanin

Compound	fraction unbound (melanin [1])	Kd [2, 7] [µM]	Kd [2, 8] [µM]	Kd [2, 9] [µM]	Target Capacity ± SE, traditional method (Sips isotherm) [4] [µM]	fraction unbound at 20 h, 1 µM (melanin [1])	Melanin binding class based on traditional assay [5]	fraction unbound at 1 µM (melanin [6]; [10])	n ± SE, traditional method (Sips isotherm) [3]	Bmax ± SE, traditional method (Sips isotherm) [3] [nmol/mg]	other results
C=C[C@H]1C[N@@]2CC[C@H]1C[C@@H]2[C@@H](O)c1ccnc2ccc(OC)cc12 [Quinidine]	0.16										
O=C(O)Cc1ccccc1Nc1c(Cl)cccc1Cl [Diclofenac]											Kd ± Kd Confidence (MST) ([2]; 0.5 mg/mL (12.5 µM) melanin nanoparticles, PBS pH 7.4, room temperature, 68% confidence, initial fluorescence mode for compounds marked *, otherwise MST mode): Kd could not be determined; Melanin binding class based on Kd from MST ([2]; class by Kd (MST)): low; melanin binder category in Figure 1a [2]: Weak melanin binders; Kd ± SE, traditional method (Sips isotherm) [3]: no binding ^1
COc1cc2nc(N3CCN(C(=O)C4CCCO4)CC3)nc(N)c2cc1OC (stereo not drawn) [Terazosin]		29 ± 28	96	29	56 ± 6.5	0.029	extreme	0.00012			n ± SE, traditional method (Sips isotherm) ([4]; 20 h): 0.64 ± 0.018; Bmax ± SE, traditional method (Sips isotherm) ([4]; 20 h): 112 ± 13 nmol/mg; Kd ([4]; 20 h): 46 ± 16 µM
CCN(CC)CCCC(C)Nc1ccnc2cc(Cl)ccc12 (stereo not drawn) [Chloroquine]		0.8	0.8		190 ± 20	0.0041	extreme	1.2e-05	0.605 ± 0.012	380 ± 40	Kd [3]: 76 ± 23 µM
COc1ccc(Cc2nccc3cc(OC)c(OC)cc23)cc1OC [Papaverine]		28 ± 23	93	28	33 ± 4	0.15	high				n ± SE, traditional method (Sips isotherm) ([4]; 20 h): 0.715 ± 0.015; Bmax ± SE, traditional method (Sips isotherm) ([4]; 20 h): 66 ± 8 nmol/mg; Kd ([4]; 20 h): 66 ± 18 µM; fraction unbound at 1 µM (melanin [6]): 0.0013
CC(C)(C)NCC(O)COc1cccc2c1CC(O)C(O)C2 (stereo not drawn) [Nadolol]		200 ± 33	260	200	34 ± 12		intermediate	0.08	0.94 ± 0.05	68 ± 24	Fraction Unbound in Vitro (%) (1 mg/mL Melanin) ([4]; pig, 20 h, 1 µM, pH 7.4): 78%; Kd [3]: 340 ± 200 µM
CC(C)NCC(O)COc1cccc2ccccc12 (stereo not drawn) [Propranolol]					88 ± 30	0.32	high	0.009	0.89 ± 0.05	176 ± 60	
CN(Cc1cnc2nc(N)nc(N)c2n1)c1ccc(C(=O)N[C@@H](CCC(=O)O)C(=O)O)cc1 [Methotrexate]	0.98	3500	> 10000	3500			low				melanin binder category in Figure 1a [2]: Weak melanin binders; fraction unbound (melanin [6]; [10]): 0.54; Kd ± SE, traditional method (Sips isotherm) [3]: no binding ^1
CC1(C)S[C@@H]2[C@H](NC(=O)Cc3ccccc3)C(=O)N2[C@H]1C(=O)O [Penicillin G]	0.092										fraction unbound (melanin [6]; [10]): 0.0029
